Source: BindingDB's records for doi:10.1016/j.bmcl.2017.10.053 (Vanderbilt University School of Medicine, 2017)

Molecular target: T1, Muscarinic acetylcholine receptor M4 (Homo sapiens, UniProt P08173)
T1 sequence (P08173 whole entry): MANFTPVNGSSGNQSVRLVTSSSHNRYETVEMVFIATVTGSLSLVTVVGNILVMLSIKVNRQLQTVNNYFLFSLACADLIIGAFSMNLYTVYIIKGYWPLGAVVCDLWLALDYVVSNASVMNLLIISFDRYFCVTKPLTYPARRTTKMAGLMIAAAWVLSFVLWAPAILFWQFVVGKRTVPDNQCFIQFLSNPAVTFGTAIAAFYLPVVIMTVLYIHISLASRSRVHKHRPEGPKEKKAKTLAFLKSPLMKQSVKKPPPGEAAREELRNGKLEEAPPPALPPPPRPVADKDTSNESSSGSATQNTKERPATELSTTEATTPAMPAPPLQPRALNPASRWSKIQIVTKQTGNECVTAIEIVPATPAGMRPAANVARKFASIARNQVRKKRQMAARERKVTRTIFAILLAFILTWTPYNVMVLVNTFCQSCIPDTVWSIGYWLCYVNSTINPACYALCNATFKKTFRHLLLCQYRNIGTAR
Test: Positive allosteric modulation of human M4 receptor expressed in CHO cells co-expressing Gqi5 assessed as increase in acetylcholine-induced calcium mobilization

## Cc1nnc2sc(C(=O)N3CC4(CCN(c5cccnc5)C4)C3)c(N)c2c1C
  EC50: 324 nM
